Measured values reported in BindingDB's records for doi:10.1021/jm9602571 (Dupont Pharmaceuticals, 1996).

Molecular target: T1, Dimer of Gag-Pol polyprotein [501-599] (Human immunodeficiency virus 1, UniProt P03367)
T1 construct: 501-599
Assay: Protease Inhibition Assay
Conditions: pH 5.5; 37 °C

Compound | Ki
O=C1N(CC2CCCC2)[C@H](Cc2ccccc2)[C@H](O)[C@@H](O)[C@@H](Cc2ccccc2)N1CC1CCCC1 | 4 nM
Nc1cccc(CN2C(=O)N(Cc3cccc(N)c3)[C@H](Cc3ccccc3)[C@H](O)[C@@H](O)[C@H]2Cc2ccccc2)c1 | 0.34 nM
